Counter-ions that a name gives are not always drawn.
System: C. albicans
Assay: Broth microdilution assay of synergistic lethality with 4 μg/mL FLC (recovery on drug-free YPD)
Format: cell-based, Candida albicans
Conditions: concentration of the compound that is synergistically lethal with 4 μg/mL FLC; C. albicans; recovery on drug-free YPD

Q: For `CN1CCN(C2=Nc3cc(Cl)ccc3Nc3ccccc32)CC1` [Clozapine], which Synergistic lethal concentrations is on record?
A: The Synergistic lethal concentrations was 100 µM.

Q: `C1CCC(C(CC2CCCCN2)C2CCCCC2)CC1` (stereo not drawn) [Perhexiline maleate] was tested. Which Synergistic lethal concentrations did it give?
A: The Synergistic lethal concentrations was 50 µM.

Q: `CN(C)C/C=C/C(=O)Nc1cc2c(Nc3ccc(F)c(Cl)c3)ncnc2cc1O[C@H]1CCOC1.O=C(O)/C=C\C(=O)O.O=C(O)/C=C\C(=O)O` [Afatinib (dimaleate)] was tested. Which Synergistic lethal concentrations did it give?
A: The Synergistic lethal concentrations was 100 µM.

Q: `CO[C@]1(C(=O)N[C@@H](C)c2ccc(-n3cc(F)cn3)nc2)CC[C@H](c2nc(C)cc(Nc3cc(C)[nH]n3)n2)CC1` [Pralsetinib] was tested. Which Synergistic lethal concentrations did it give?
A: The Synergistic lethal concentrations was 100 µM.

Q: With `CN1CCC(=C2c3ccccc3C=Cc3ccccc32)CC1.CN1CCC(=C2c3ccccc3C=Cc3ccccc32)CC1.Cl.Cl.O.O.O` as the compound, how does the Synergistic lethal concentrations read?
A: The Synergistic lethal concentrations was 100 µM.

Q: For `O=C(CCCN1CCC(O)(c2ccc(Cl)cc2)CC1)c1ccc(F)cc1` [Haloperidol], which Synergistic lethal concentrations is on record?
A: The Synergistic lethal concentrations was 100 µM.

Q: `CCN1CCN(c2cc(-c3ccc(F)cc3)c3c(n2)CCCCCC3)CC1` [Blonanserin] was tested. Which Synergistic lethal concentrations did it give?
A: Its Synergistic lethal concentrations is 50 µM.

Q: For `CNCCCC12CCC(c3ccccc31)c1ccccc12.Cl` [Maprotiline (hydrochloride)], which Synergistic lethal concentrations is on record?
A: Its Synergistic lethal concentrations is 50 µM.

Q: For `CC(C)OC(=O)CCC/C=C\C[C@@H]1[C@@H](/C=C/[C@@H](O)COc2cccc(C(F)(F)F)c2)[C@H](O)C[C@@H]1O` [Travoprost], which Synergistic lethal concentrations is on record?
A: The Synergistic lethal concentrations was 100 µM.

Q: With `CC(C)n1c(/C=C/C(O)CC(O)CC(=O)[O-])c(-c2ccc(F)cc2)c2ccccc21.[Na+]` (stereo not drawn) [Fluvastatin (sodium)] as the compound, how does the Synergistic lethal concentrations read?
A: Its Synergistic lethal concentrations is 6.25 µM.

Q: Which Synergistic lethal concentrations does the source give for `NC(=O)Cc1cccc(C(=O)c2ccccc2)c1N` [Nepafenac] here?
A: Its Synergistic lethal concentrations is 100 µM.

Q: Which Synergistic lethal concentrations does the source give for `[H]/N=C(\N/C(=N/[H])Nc1ccc(Cl)cc1)NC(C)C` [Proguanil] here?
A: The Synergistic lethal concentrations was 100 µM.

Q: `CN(C)CCC=C1c2ccccc2CCc2ccccc21.Cl` [Amitriptyline (hydrochloride)] was tested. Which Synergistic lethal concentrations did it give?
A: The Synergistic lethal concentrations was 100 µM.

Q: With `COc1cc(C)c2c(Oc3cccc(C(F)(F)F)c3)c(OC)cc(NC(C)CCCN)c2n1.O=C(O)CCC(=O)O` (stereo not drawn) [Tafenoquine (Succinate)] as the compound, how does the Synergistic lethal concentrations read?
A: The Synergistic lethal concentrations was 25 µM.

Q: How did the Synergistic lethal concentrations turn out when `CCN(CC)C(=S)SSC(=S)N(CC)CC` [Disulfiram] was run?
A: The Synergistic lethal concentrations was 100 µM.

Q: `CCCCCCCCCCCCCCCC[N+](C)(C)CCN(Cc1ccc(OC)cc1)c1ncccn1.[Br-]` [Thonzonium (bromide)] was tested. Which Synergistic lethal concentrations did it give?
A: The Synergistic lethal concentrations was 100 µM.

Q: For `CC(C)n1nccc1-c1ncccc1COc1cccc(O)c1C=O` [Voxelotor], which Synergistic lethal concentrations is on record?
A: Its Synergistic lethal concentrations is 100 µM.

Q: How did the Synergistic lethal concentrations turn out when `C=CCc1ccc(O)c(OC)c1` [Eugenol] was run?
A: The Synergistic lethal concentrations was 100 µM.

Q: How did the Synergistic lethal concentrations turn out when `CN(C/C=C/C#CC(C)(C)C)Cc1cccc2ccccc12` [Terbinafine] was run?
A: Its Synergistic lethal concentrations is 6.25 µM.

Q: `CCCCOc1ccc(CC(=O)NO)cc1` [Bufexamac] was tested. Which Synergistic lethal concentrations did it give?
A: Its Synergistic lethal concentrations is 100 µM.

Q: How did the Synergistic lethal concentrations turn out when `C=CC(=O)Nc1cc(Nc2nccc(-c3cn(C4CC4)c4ccccc34)n2)c(OC)cc1N(C)CCN(C)C` [Almonertinib] was run?
A: The Synergistic lethal concentrations was 25 µM.

Q: For `COC(=O)[C@H]1[C@H]2C[C@@H]3c4[nH]c5cc(OC)ccc5c4CCN3C[C@H]2C[C@@H](OC(=O)c2cc(OC)c(OC)c(OC)c2)[C@@H]1OC` [Reserpine], which Synergistic lethal concentrations is on record?
A: Its Synergistic lethal concentrations is 50 µM.

Q: Which Synergistic lethal concentrations does the source give for `CCCCOc1ccc(OCCCN2CCOCC2)cc1.Cl` [Pramocaine (hydrochloride)] here?
A: Its Synergistic lethal concentrations is 100 µM.

Q: With `COC(=O)C1=C(C)NC(C)=C(C(=O)O[C@@H]2CCCN(Cc3ccccc3)C2)[C@@H]1c1cccc([N+](=O)[O-])c1.Cl` (racemic) [Benidipine (hydrochloride)] as the compound, how does the Synergistic lethal concentrations read?
A: The Synergistic lethal concentrations was 100 µM.

Q: Which Synergistic lethal concentrations does the source give for `CN1CCC(=C2c3ccccc3C=Cc3ccccc32)CC1.Cl` [Cyproheptadine (hydrochloride)] here?
A: Its Synergistic lethal concentrations is 50 µM.

Q: For `O=C(c1ccc(F)c(F)c1Nc1ccc(I)cc1F)N1CC(O)([C@@H]2CCCCN2)C1` (racemic) [Cobimetinib (racemate)], which Synergistic lethal concentrations is on record?
A: The Synergistic lethal concentrations was 25 µM.

Q: Which Synergistic lethal concentrations does the source give for `CCCCCNC(=N)N/N=C/c1c[nH]c2ccc(OC)cc12.O=C(O)/C=C\C(=O)O` [Tegaserod (maleate)] here?
A: Its Synergistic lethal concentrations is 6.25 µM.
